Measurements taken from US8507460B2, “Substituted 3′,5′-cyclic phosphates of purine nucleotide compounds and pharmaceutical compositions for the treatment of viral infections” (priority 2011, dated 2013).

Assays:
Stability in mouse blood = type: in vitro ADME; details: mouse whole blood, on ice, percent unchanged
Description: (§1) Stability of test compounds were determined in fresh human whole blood with K2EDTA as the anticoagulant (stored refrigerated at 2-8° C. and used within 7 days of receipt). The experiment was conducted with three replicates for each time point. Whole blood, pre-incubated at 37° C. for 10-15 minutes, was fortified with a solution of test compound for a final concentration of 0.5 μM and mixed for 30 sec. At intervals (0, 0.5, 1 and 2 hr), three […] aliquots were combined with 200 μL (each) of an ice-cold solution of the internal standard (carbutamide 500 ng/mL in acetonitrile). The samples were vortexed for 30 sec and then centrifuged at 16,100 g for 5 min. The supernatant was analyzed by LC-MS/MS. The MS peak area ratio of the test compound versus the internal standard was calculated and percent unchanged test compound was calculated for each time point using this ratio.
The stability in mouse blood was determined on ice at 0, 0.5 and 1 hr as above.

[1] = Plasma and liver pharmacokinetics following a single oral dose in monkeys (Example 6); type: in vivo; details: cynomolgus monkey, plasma, Cynomolgus monkeys, single oral dose (mg/kg per Table 6: 1a 10, A 25, B 10, C 10, D 50)
Description: […] Untreated animals were used for the collection of control liver. Plasma samples were collected at 1, 2, 4, 6, 8, 12 and 24 hours for all compounds and additionally at 0.5 hour (Compounds 1a, B and D), 3 and 10 hours (Compound C), and 32 and 48 hours post dose for Compound A. Terminal liver samples were collected from three animals per time point at 6, 12 and 24 hours post dose for all compounds and additionally at 2 hours (Compounds 1a, B and D), 3 hours (Compound C) and 32 and 48 hours post dose for Compound A. Liver specimens were collected from all animals immediately after the incision. Freezing forceps stored in liquid nitrogen were used to freeze the liver before excision.
(§2) Plasma samples were analyzed for the prodrug and 2′-methylguanosine (2′-MeG) or relevant nucleoside by LC-MS/MS. For protein precipitation and extraction, each plasma sample (50 μL) was treated with 500 μL of 0.2% formic acid in acetonitrile and 20 μL of an appropriate internal standard working solution. After vortexing and centrifugation, 500 μL of the sample extracts were transferred to a new plate, dried under N2 at ˜28° C. and reconstituted with 75 μL of 0.2% FA in water. The extracts were chromatographed on an Aquasil C18 column using a gradient system of 0.2% formic acid in water and acetonitrile. The analytes were detected and quantified by tandem mass spectrometry in positive ion mode on an MDS Sciex API5000 or an API4000 equipped with a Turbo Ionspray® interface. The calibration range was 0.500 (LLOQ) to 200 ng/mL in mouse plasma. The corresponding range for molar units is 1.68 to 673 pmol/mL.
(§3) Liver samples were analyzed for the active species 2′-methylguanosine triphosphate (2′-MeGTP) or relevant nucleoside triphosphate by LC-MS/MS. The triphosphate levels were assayed by homogenizing (on ice) a known weight of mouse liver with 4× volume of 0.95 M trichloroacetic acid (TCA). Appropriate internal standard solution was added to the homogenate followed by neutralization with 20% ammonium hydroxide solution and addition of 500 μL 1% formic acid. The tissue samples were extracted by weak anion exchange solid phase extraction (SPE). Post extraction, the eluates were evaporated under nitrogen, followed by reconstitution before injection onto the LC-MS/MS system. The samples were chromatographed on a Luna NH2 column using a gradient system of ammonium acetate (1 mM to 20 mM and pH 8.0 to pH 10.0) in water and acetonitrile (70:30). The analyte was detected and quantified by tandem mass spectrometry in positive ion mode on an API4000 equipped with a Turbo Ionspray® interface. The calibration range was 10 to 10000 pmol/mL in mouse liver homogenate (50 to 50000 pmol/g of mouse liver).

[2] = Plasma and liver pharmacokinetics following a single oral dose in mice (Example 6); type: in vivo; details: mouse, plasma, CD-1 mice, oral 25 mg/kg, 1a average of N = 2
Description: For each compound, a single oral dose at 25 mg/kg in PEG 200 (dose volume 5 mL/kg) was administered to [CD-1] mice. Untreated animals were used for the collection of control liver. Terminal liver and plasma samples were collected from three animals per time point at 4, 12 and 24 hours post dose and additionally at 1 hour post dose in one occasion of Compound 1 (see Example 5). Liver specimens were collected from all animals immediately after the incision. Freezing forceps stored in liquid nitrogen were used to freeze the liver before excision.
as §2, §3

[3] = Stability in fresh human whole blood; type: in vitro ADME; details: 0.5 μM, percent unchanged
Description: as §1

HCV genotype 1b replicon = test: HCV Replicon Assay (Zluc luciferase reporter); type: cell-based
Description: Huh-7-derived cell line (Zluc) that harbors an HCV genotype 1b replicon and a luciferase reporter gene was grown in Dulbecco's Modified Eagle Medium (DMEM) supplemented with 10% fetal bovine serum, 2 mM GlutaMAX, 1% MEM nonessential amino acids, 100 IU/mL penicillin, 100 μg/mL streptomycin, and 0.5 mg/mL Geneticin® (G418). For dose response testing the cells were seeded in 96-well plates at 7.5×10^3 cells per well in a volume of […], and incubated at 37° C./5% CO2. Drug solutions were made up freshly in Huh-7 media as 2× stocks. […] 5-fold dilutions were prepared from these stocks in DMEM without G418. At least three hours after Zluc cells were seeded, drug treatment was initiated by adding 50 μL of drug dilutions to the plates in duplicate. Final concentrations of drug ranged from 100 μM to 0.0000512 μM. Cells were then incubated at 37° C./5% CO2. Alternatively, compounds were tested at two concentrations (1 μM and 10 μM). […] After 72 hours of incubation, the inhibition of HCV replication was measured by quantification of photons emitted after mono-oxygenation of 5′-fluoroluciferin to oxyfluoroluciferin by firefly luciferase. For this, media was removed from the plates via gentle tapping. Fifty microliters of ONE-glo luciferase assay reagent was added to each well. The plates were shaken gently for 3 min at room temperature and luminescence was measured on a Victor^3 V 1420 multilabel counter (Perkin Elmer) with a 1 second read time using a 700 nm cut-off filter. The EC50 values were calculated from dose response curves from the resulting best-fit equations determined by Microsoft Excel and XLfit 4.1 software. When screening at two fixed concentrations, the results were expressed as % inhibition at 1 μM and 10 μM.

[4] = normalized to 1 μmol/kg dose, read-out: Plasma prodrug AUC0-24
[5] = normalized to 1 μmol/kg dose, read-out: Plasma prodrug Cmax

With `CCOc1nc(N)nc2c1ncn2[C@@H]1O[C@@H]2COP(=O)(OC(C)C)O[C@H]2[C@@]1(C)O` (single isomer, unassigned) [Compound 1a] the “Stability WB_Mouse (ice; 1 hr)” value (Stability in mouse blood) was 94%, the AUC(0-t) [1, 4] was 0.15 µM·h and the Cmax [1, 5] was 22 nM. It also gave a Tmax ([1]; read-out: Plasma prodrug Tmax) of 2 h, an AUC(0-t) [2, 4] of 0.34 µM·h and a Cmax [2, 5] of 43 nM. The Tmax ([2]; read-out: Plasma prodrug Tmax) was 3 h, the “Stability WB_Human (37° C.; 2 hr)” value [3] was 101% and the selectivity index (HCV genotype 1b replicon; HCV replicon assay, Zluc cells) was “greater than 100”. For the same molecule, the EC50 (HCV genotype 1b replicon; Zluc cells (Huh-7-derived, HCV genotype 1b replicon, luciferase reporter), 72 hours) was no more than 250 nM.
